Results reported in article PMC7287882, “Dual miRNases for Triple Incision of miRNA Target: Design Concept and Catalytic Performance” (Molecules, 2020).

Experiments:
[1] = format: in vitro ADME, bovine; details: serum
Method: Stability of miRNA-21-DC and miRNA-155-DC and corresponding ONs was carried out in reaction mixtures (90 µL) containing DCs or ONs at a concentration of 0.1 mg/mL in Dulbecco’s Modified Eagle Medium (DMEM) with 10% FBS at 37 °C for 24 h. Aliquots (10 μL) were taken after 0, 0.5, 1, 2, 4, 8, and 24 h of incubation. The reaction was stopped by adding 10 μL of 8 M urea, and the reaction mixture was immediately frozen in liquid nitrogen. DCs and ONs cleavage products were analyzed in 12% PAAG/8M urea. To identified products, gels were stained with the Stains-All dye and photographed using a gel documentation system.
Figure S12. Stability of Dual conju gat es (DCs) and corresponding Du al oligonucleotides (ONs)
targeted to miR-155 and miR-21 in cell medium DMEM supplemented with 10% FBS . Im a g e s
of the 12% PAAG/8M urea, stained with Stains-Alland kinetics of degradation of DCs and ONs .
Conjugates and oligonucleotides at a concentration of 0. 1 mg/mL were incubated in DMEM
supplemented with 10% FBS at 37 °C for 24 h.
(1 picture or pasted object on this page, not shown here)

miR-17 = experiment: Ribonuclease activity assay at different concentrations of KCl; format: biochemical; details: miRNA 1 µM, DC 20 µM, 37 °C, 48 h; for Cleavage: 20 mM Tris-HCl pH 7.8, 8 mM MgCl2, 1 mM DTT, 0.02 mg/mL BSA, mean ± s.e.
Method: Potassium ions play an important role in the regulation of cell homeostasis by maintaining the membrane potential, cell volume and pH, and may also have an influence on the performance of artificial ribonucleases. […] In order to understand the effect of K^+ ions on the efficiency of miRNA cleavage by DCs, miR-17 was incubated with the matching DC in the buffer containing 50 mM Tris-HCl, pH 7.0, 1 mM DTT, 0.02 mg/mL BSA and different K^+ concentration varied from 0 to 400 mM. […] In the absence of potassium and at a concentration of more than 200 mM, the efficiency of miRNA cleavage was 2-fold reduced.
Reaction with different concentration of KCl was performed in reaction mixtures (8 µL) containing 320 cpm (Cherenkov’s counting) of [^32P]-miR-17, 1 μM unlabeled miRNA, 20 µM of miRNA-17-DC in buffers contained 20 mM Tris-HCl, pH 7.8, 8 mM MgCl2, 1 mM DTT, 0.02 mg/mL BSA, and KCl at concentration 0, 40, 100, 200 or 400 mM at 37 °C for 48 h. RNA cleavage products were collected and analyzed as described above.

miR-21_1 = experiment: Ribonuclease activity assay, cleavage of modified miR-21_1; format: biochemical; details: miRNA 1 µM, DC 20 µM, 37 °C
Method: The ribonuclease activity of DCs was studied under two different buffer conditions: buffer (1) contained 50 mM Tris-HCl, pH 7.0, 200 mM KCl, 1 mM EDTA, which imitates intracellular conditions (e.g., pH and potassium ions concentration) and was used in a number of studies previously; and buffer (2) contained 20 mM Tris-HCl, pH 7.8, 40 mM KCl, 8 mM MgCl2, 1 mM DTT, 0.02 mg/mL BSA, which is recommended for in vitro reactions with RNase H (Figure 3 and Figure 4).
Despite the high binding affinity of all DCs to their matching miRNA targets, miR-21 was not cleaved by the corresponding Dual conjugate (Figure 3d). The most probable reason for this was the absence of the pyrimidine-A sites sensitive towards cleavage by this type of conjugates within the single-stranded “gap” formed upon binding to conjugate. In order to verify this hypothesis, we tested the cleavage of the modified miR-21 sequence (miRNA-21_1) containing 2 substitutions in the gap region (AGACU → AUACA) to generate C-A and U-A bonds. Such replacement, indeed, led to a noticeable cleavage of the miR-21_1 target with miR-21-targeting DC at the introduced U11-A12 and C13-A14 sites (Figure 3e) with the cleavage efficiency reaching 18% (Figure 3f, Table S2).
The reaction mixture (10 µL) contained 800 cpm (Cherenkov’s counting) of [^32P]-miRNA, 1 μM unlabeled miRNA, one of the conjugates at a concentration 10 or 20 μM and one of the buffers: 50 mM Tris-HCl, pH 7.0, 200 mM KCl, 1 mM EDTA–buffer (1) or 20 mM Tris-HCl, pH 7.8, 40 mM KCl, 8 mM MgCl2, 1 mM DTT, 0.02 mg/mL BSA–buffer (2). The mixture was incubated at 37 °C for 0–72 h and quenched by precipitation of RNA with 2% LiClO4 in acetone (90 µL). RNA was collected by centrifugation and dissolved in loading buffer (8 M urea, 0.025% bromophenol blue, 0.025% xylene cyanol). RNA cleavage products were analyzed in 18% PAAG/8M urea using TBE (100 mM Tris-borate, pH 8.3, 2 mM EDTA) as running buffer. To identify cleavage sites, an imidazole and T1-ladders produced by partial RNA cleavage with 2 M imidazole buffer (pH 7.0) and with RNase T1 [68], respectively, were run in parallel. To obtain quantitative data, gels were dried and analyzed using Molecular Imager FX. The total extent of RNA cleavage and the extent of RNA cleavage at each individual site were determined by using Quantity One software v.4.1 (Bio-Rad, Hercules, CA, USA).

| Substance | half-life time (τ1/2) in 10% FBS [1] | Cleavage (miR-17; K+ 0 mM) | Cleavage (miR-17; K+ 40 mM) | Cleavage (miR-17; K+ 100 mM) | Cleavage (miR-17; K+ 200 mM) | Cleavage (miR-17; K+ 400 mM) | most potent degradation of miRNA-target (miR-17; at 40–100 mM KCl) | Total Cleavage (miR-21_1; buffer (1) 50 mM Tris-HCl pH 7.0, 200 mM KCl, 1 mM EDTA, 2 h) | Total Cleavage (miR-21_1; buffer (1) 50 mM Tris-HCl pH 7.0, 200 mM KCl, 1 mM EDTA, 24 h) | Total Cleavage (miR-21_1; buffer (1) 50 mM Tris-HCl pH 7.0, 200 mM KCl, 1 mM EDTA, 48 h) | Total Cleavage (miR-21_1; buffer (2) 20 mM Tris-HCl pH 7.8, 40 mM KCl, 8 mM MgCl2, 1 mM DTT, 0.02 mg/mL BSA, 6 h) | Total Cleavage (miR-21_1; buffer (2) 20 mM Tris-HCl pH 7.8, 40 mM KCl, 8 mM MgCl2, 1 mM DTT, 0.02 mg/mL BSA, 24 h) | Total Cleavage (miR-21_1; buffer (2) 20 mM Tris-HCl pH 7.8, 40 mM KCl, 8 mM MgCl2, 1 mM DTT, 0.02 mg/mL BSA, 48 h) | rise of Kobs in buffer (2) compared to Kobs in buffer (1) (miR-21_1) |
| --- | --- | --- | --- | --- | --- | --- | --- | --- | --- | --- | --- | --- | --- | --- |
| ACCCCTAT–linker 1–[GRLRL]2–linker 2–TTAGCATTAA [miRNA-155-DC, Dual oligonucleotide-peptide conjugate targeted to miR-155: catalytic peptide [LRLRG]2 between two 2-aminoadenine-containing oligodeoxyribonucleotides] | 9.01 ± 0.5 h |  |  |  |  |  |  |  |  |  |  |  |  |  |
| CTACCTGC–linker 1–[GRLRL]2–linker 2–AAGCACTTTG [miRNA-17-DC, Dual oligonucleotide-peptide conjugate targeted to miR-17: catalytic peptide [LRLRG]2 between two 2-aminoadenine-containing oligodeoxyribonucleotides] |  | 13.2±5.0% | 22.5±4.3% | 26.4±2.0% | 13.7±3.5% | 14.1±3.8% | approximately 25% |  |  |  |  |  |  |  |
| TCAACATC–linker 1–[GRLRL]2–linker 2–GATAAGCTA [miRNA-21-DC, Dual oligonucleotide-peptide conjugate targeted to miR-21: catalytic peptide [LRLRG]2 between two 2-aminoadenine-containing oligodeoxyribonucleotides] | 8 ± 0.1 h |  |  |  |  |  |  | 0,7% | 10% | 18% | 14% | 48% | 63% | 3 fold |
